Experimental data taken from paper PMC7253723, “Chain-End Modifications and Sequence Arrangements of Antimicrobial Peptoids for Mediating Activity and Nano-Assembly” (Frontiers in Chemistry, 2020).
Values joined by “and” are separate entries in the source; they are usually repeats but may differ in a detail not shown here. Equal values may be shown once. Read-outs that look alike come from different tables or passages of the source. Square brackets hold non-standard residues; d marks the D form. Peptide text beside a SMILES is read from it. * marks the point of attachment. Palmitoyl = CCCCCCCCCCCCCCCC(=O)*; Nspe = C[C@H](NCC(=O)O)c1ccccc1; Lauroyl = CCCCCCCCCCCC(=O)*; AEEA = NCCOCCOCC(=O)O; Nlys = NCCCCNCC(=O)O

Legend:
[1] = Critical aggregation concentration (CAC) Nile red fluorescence assay; assay type: physicochemical; details: room temperature
Description: Nile red (NR) fluorescence was used to measure critical aggregation concentration (CAC) for the synthesized lipopeptoids. Lipopeptoids were dissolved at 2.5 × 10^−2 to 1 wt.% in a dilute solution of Nile red (0.25 μg/100 mL, i.e. ~10 nM concentration) prepared in water. NR was excited at 552 nm and emission was recorded at room temperature in the range 550–750 nm using a 10.0 × 5.0 mm^2 quartz cell (Jasco spectrofluorimeter FP-6500). The intensity of the peak centered around 610 nm is shown in the data presented in Section results and discussion.
We first examined with a CAC assay whether coupling a hydrophobic tail to AMPMs and inserting the kk and EG2 components is a viable design for generating self-assembling lipopeptoids. The CAC measures the concentration above which hydrophobic pockets (e.g., lipophilic cores of micelles) are formed, and lower CACs indicate higher propensities of self-assembly. In our experiments, the CAC is indicated by an inflection in the increase in emission intensity of a lipophilic fluorophore tracer (Nile Red) that emits more strongly when partitioned into hydrophobic lower dielectric environments (see Figure S6 for an example analysis).

[2] = Analytical RP-HPLC elution (ACN %) as measure of hydrophobicity; assay type: physicochemical; details: chromatographic, C18 column (250 × 4.6 mm Nucleosil), 30 min gradient 5–95% ACN in water with 0.1% TFA, 1 mL/min, used as measure of hydrophobicity
Description: Peptoids were synthesized on resin manually or with an automated synthesizer (Prelude X, Gyros Protein Technologies) using a solid phase “submonomer” approach (Zuckermann et al., [1992]; Lau, [2014]; Lau et al., [2017]). Briefly, the Fmoc protected rink amide resin was deprotected with 20% piperidine for 20 min, applied twice. Each residue was added by treatment to a mixture of bromoacetic acid (20 times excess) and diisopropyl-carbodiimide (18.5 times excess) for 15 min, followed by a halo-substitution reaction with appropriate primary amine submonomers. For the attachment of a di ethylene glycol linker, Fmoc-amino-3,6 dioxaoctanoic acid (1.8 mmol), and equivalent moles of HBTU ((2-(1H-benzotriazol-1-yl)-1,1,3,3-tetramethyluronium hexafluorophosphate) were reacted with the terminal amino group in the presence of N,N-diisopropylethylamine (DIPEA, 2.7 mmol). This reaction was carried out for 2 h at 37°C and repeated a second time for 4 h, to ensure coupling. Like resin Fmoc deprotection, EG2 N-terminal Fmoc deprotection was achieved using 20% piperidine for 20 min, applied twice. Different chain lengths of saturated fatty acids, i.e., pelargonic acid (C8), lauric acid (C11), and palmitic acid (C15) were subsequently coupled using the HBTU amide coupling as reported previously (Lau et al., [2017]). After solid phase synthesis, the resin was cleaved and side chains were deprotected for 30 min using a standard TFA:TIPS:H2O cocktail (95:2.5:2.5 v/v/v). Excess TFA was removed using a rotary evaporator and the peptoid was precipitated from the oily product using diethyl ether. The collected material was dissolved in small amounts of 1:1 acetonitrile:water (ACN:H2O) to ease sample transfer, and further dried in a lyophilizer. Dried crude products were weighed and dissolved in ACN-H2O mixtures for preparative RP-HPLC (Dionex Ultimate 3000) with a C18 column (250 × 10 mm Phenomenex Jupiter). Fractions containing the pure product were identified by ESI-LC-MS (Agilent 1200 with a Poroshell C18 column coupled to an Agilent 6130 mass spectrometer) and by analytical RP-HPLC (Dionex P680) using a C18 column (250 × 4.6 mm “Nucleosil”) with a 30 min gradient of 5–95% acetonitrile (ACN) in water containing 0.1% TFA at 1 mL/min. The purified fractions of peptoids and lipopeptoids were later stored as aliquots at −20°C until further analysis.

[3] = test system: Escherichia coli (ATCC 25922); assay type: cell-based
Description: (§1) Technical triplicates (n = 3) or more of samples at each concentration were analyzed.

[4] = test system: Staphylococcus aureus (NCTC 4135); assay type: cell-based
Description: as §1

[5] = test system: Pseudomonas aeruginosa (PA01); assay type: cell-based
Description: as §1

[6] = Dynamic light scattering (DLS), hydrodynamic radius of nano-assemblies; assay type: physicochemical; details: 0.4 wt.% in deionized water, 0.22 μm filtered, 25°C, detection angle 90°
Description: DLS measurements were carried out at room temperature (25°C) using an ALV/LSE-5004 instrument equipped with He-Ne laser (λ = 632.8 nm) at a detection angle of θ = 90° (Lau et al., [2017]). Samples were prepared at a concentration of 0.4 wt.% in deionized water (DI) water and further filtered using 0.22 μm pore size surfactant-free cellulose acetate (SFCA) syringe filters (Sigma Aldrich, UK) to avoid particulate contamination.

[7] = Small angle X-ray scattering (SAXS), size of nano-assemblies; assay type: physicochemical; details: 1 wt.% peptoid solution, fitted
Description: SAXS experiments were performed on the bioSAXS beamline B21 at Diamond Light Source, U.K., using a previously established protocol (Castelletto et al., [2019]). Briefly, solutions containing 1 wt.% peptoid were loaded into a set of PCR tubes fitted in the 96-well plate of the BioSAXS robot. From there, the robot loaded the solutions into a quartz capillary perpendicularly placed in the path of the incident X-ray beam. SAXS data, collected using a Dectris PILATUS 2 M detector at a fixed camera length of 3.9 m, is presented as scattering intensity vs. q = 4π sinθ /λ (2θ: scattering angle; wavelength: λ = 1 Å). See Supplementary Information for description of SAXS data fitting.

[8] = Cryo-TEM, size of nano-assemblies; assay type: physicochemical; details: vitrified sample
Description: Sizes of selected lipopeptoid nano-assemblies were verified using a field emission cryo-electron microscope (JEOL JEM3200FSC), operating at 200 kV and at −187°C, configured in bright field mode and zero loss energy filtering (omega type) with a slit width of 20 eV. Sizes of selected lipopeptoids nano-assemblies were measured from photographs recorded using a Gatan Ultrascan 4000 CCD camera. Vitrified specimens were prepared on Quantifoil 3.5/1 holey carbon copper grids (hole size of 3.5 μm). The grids were first plasma cleaned using a Gatan Solarus 9500 plasma cleaner and then transferred into the environmental chamber of an automated FEI Vitrobot device at room temperature and 100% humidity. Thereafter, 3 μL of the sample solution was applied on the grid, which was blotted twice for 5 s and then vitrified in a 1:1 mixture of liquid ethane and propane at a temperature of −180°C. The grids with vitrified sample solution were maintained at liquid nitrogen temperature and then cryo-transferred to the microscope.

[9] = Nile red fluorescence (~10 nM NR in water), lipopeptoids 2.5 × 10^-2 to 1 wt.%, excitation 552 nm, peak around 610 nm, inflection in emission intensity
[10] = MH broth microdilution (CLSI M07-A10), ~5 × 10^5 CFU/mL, overnight 37°C, OD 600 nm, MIC = concentration with OD halfway between minimum and maximum, sigmoidal fit ± SD, n = 3 or more, maximum tested 100 μM

In the case of `CCCCCCCCCCCC(=O)NCCOCCOCC(=O)N(CCCCN)CC(=O)N(CC(=O)N(CC(=O)N(CCCCN)CC(=O)N(CC(=O)N(CC(=O)N(CCCCN)CC(=O)N(CCCCN)CC(N)=O)[C@@H](C)c1ccccc1)[C@@H](C)c1ccccc1)[C@@H](C)c1ccccc1)[C@@H](C)c1ccccc1` [C11-EG2-(kss)2-kk] ({Lauroyl-AEEA}-[Nlys][Nspe][Nspe][Nlys][Nspe][Nspe][Nlys][Nlys]-NH2), the CAC [1, 9] was 198 µM and 200 ± 17 µM and the “elution ACN % (RP-HPLC retention)” value [2] was 52 ACN %.
In the case of `CCCCCCCCCCCC(=O)NCCOCCOCC(=O)N(CCCCN)CC(=O)N(CC(=O)N(CC(=O)N(CCCCN)CC(=O)N(CC(=O)N(CC(=O)N(CCCCN)CC(=O)N(CC(=O)N(CC(=O)N(CCCCN)CC(=O)N(CCCCN)CC(N)=O)[C@@H](C)c1ccccc1)[C@@H](C)c1ccccc1)[C@@H](C)c1ccccc1)[C@@H](C)c1ccccc1)[C@@H](C)c1ccccc1)[C@@H](C)c1ccccc1` [C11-EG2-(kss)3-kk] ({Lauroyl-AEEA}-[Nlys][Nspe][Nspe][Nlys][Nspe][Nspe][Nlys][Nspe][Nspe][Nlys][Nlys]-NH2), the “Antimicrobial activity (MIC) E. coli” value [3, 10] was 3 ± 0.2 µM, the “Antimicrobial activity (MIC) S. aureus” value [4, 10] was 1 ± 0.1 µM and the “Antimicrobial activity (MIC) P. aeruginosa” value ([5]; PA01, MH broth microdilution (CLSI M07-A10), ~5 × 10^5 CFU/mL, overnight 37°C, OD 600 nm, MIC = concentration with OD halfway between minimum and maximum, sigmoidal fit ± SD, n = 3 or more, maximum tested 100 μM) was 15 ± 0.4 µM. For the same molecule, the CAC [1, 9] was 310 ± 38 µM, the CAC ([1]; Nile red fluorescence in water, CAC expressed in mg/mL) was 0.52 mg/mL and the “elution ACN % (RP-HPLC retention)” value [2] was 54 ACN %.
For `CCCCCCCCCCCCCCCC(=O)N(CCCCN)CC(=O)N(CC(=O)N(CC(=O)N(CCCCN)CC(=O)N(CC(=O)N(CC(=O)N(CCCCN)CC(=O)N(CC(=O)N(CC(=O)N(CCCCN)CC(=O)N(CC(=O)N(CC(=O)N(CCCCN)CC(=O)N(CCCCN)CC(N)=O)[C@@H](C)c1ccccc1)[C@@H](C)c1ccccc1)[C@@H](C)c1ccccc1)[C@@H](C)c1ccccc1)[C@@H](C)c1ccccc1)[C@@H](C)c1ccccc1)[C@@H](C)c1ccccc1)[C@@H](C)c1ccccc1` [C15-(kss)4-kk] (Palmitoyl-[Nlys][Nspe][Nspe][Nlys][Nspe][Nspe][Nlys][Nspe][Nspe][Nlys][Nspe][Nspe][Nlys][Nlys]-NH2), the CAC [1, 9] was 304 µM and 300 ± 25 µM and the “elution ACN % (RP-HPLC retention)” value [2] was 66 ACN %.
With `CCCCCCCCCCCCCCCC(=O)NCCOCCOCC(=O)N(CCCCN)CC(=O)N(CC(=O)N(CC(=O)N(CCCCN)CC(=O)N(CC(=O)N(CC(=O)N(CCCCN)CC(=O)N(CC(=O)N(CC(=O)N(CCCCN)CC(=O)N(CC(=O)N(CC(=O)N(CCCCN)CC(=O)N(CCCCN)CC(N)=O)[C@@H](C)c1ccccc1)[C@@H](C)c1ccccc1)[C@@H](C)c1ccccc1)[C@@H](C)c1ccccc1)[C@@H](C)c1ccccc1)[C@@H](C)c1ccccc1)[C@@H](C)c1ccccc1)[C@@H](C)c1ccccc1` [C15-EG2-(kss)4-kk] ({Palmitoyl-AEEA}-[Nlys][Nspe][Nspe][Nlys][Nspe][Nspe][Nlys][Nspe][Nspe][Nlys][Nspe][Nspe][Nlys][Nlys]-NH2) the “Antimicrobial activity (MIC) E. coli” value [3] was 44 ± 5 µM, the “Antimicrobial activity (MIC) S. aureus” value [4] was 36 ± 5 µM and the “Antimicrobial activity (MIC) P. aeruginosa” value [5] was greater than 100 µM. For the same molecule, the Hydrodynamic radius RH (DLS) was 45 nm.
With `CCCCCCCCCCCCCCCC(=O)NCCOCCOCC(=O)N(CCCCN)CC(=O)N(CC(=O)N(CC(=O)N(CCCCN)CC(=O)N(CC(=O)N(CC(=O)N(CCCCN)CC(=O)N(CC(=O)N(CC(=O)N(CCCCN)CC(=O)N(CC(=O)N(CC(N)=O)[C@@H](C)c1ccccc1)[C@@H](C)c1ccccc1)[C@@H](C)c1ccccc1)[C@@H](C)c1ccccc1)[C@@H](C)c1ccccc1)[C@@H](C)c1ccccc1)[C@@H](C)c1ccccc1)[C@@H](C)c1ccccc1` [C15-EG2-(kss)4] ({Palmitoyl-AEEA}-[Nlys][Nspe][Nspe][Nlys][Nspe][Nspe][Nlys][Nspe][Nspe][Nlys][Nspe][Nspe]-NH2) the “hydrodynamic radius (RH)” value [6] was “ca. 50 nm”, the CAC [1, 9] was 38 µM and 38 ± 3 µM and the CAC ([1]; Nile red fluorescence in water, CAC expressed in wt.%) was 0.0075 wt.%. For the same molecule, the “radius of nano-assemblies (SAXS)” value [7] was 24 ± 5 nm, the “diameter of smallest non-compact aggregates (TEM)” value [8] was “ca. 5 nm” and the “elution ACN % (RP-HPLC retention)” value [2] was 82 ACN %.
